Results on ten compounds are retold here after patent publication US5604211A, “Saccharide for supplementing energy to living body, and uses” (priority 1991, dated 1997).

A short description of data set [1]: Digestion test in vitro, enzyme of small intestinal mucous membrane. The class given is in vitro ADME. The settings on record: small intestinal mucosal enzyme, Tables 1 and 2, read-out: Hydrolysis rate. As for the experimental part: (§1) In accordance with the method reported in K. Okada et al., Journal of Japanese Society of Nutrition and Food Science, Vol.43, No.1, pp.23-29 (1990), a crystalline neotrehalose specimen formulated by the method in Example A1-2 was prepared as an aqueous solution which was then tested for its digestibility in vitro: The digestibility was determined with the following equation and expressed as hydrolysis rate (%): [formula]
Similarly as above, several kinds of disaccharides were tested for their digestibility using the enzyme of the small intestinal mucous membrane.

A short description of data set [2]: Utilization test in vivo, intravenous instillation to healthy volunteers (blood sugar, insulin, urine). As to conditions: for dose excreted: urine, 50000 mg, read-out: amount of glucose in the urine. Further details: species or system human. On the procedure: A neotrehalose specimen prepared by the method in Example A1-2 was treated to remove pyrogens in the usual manner, and 50 g of the resultant neotrehalose specimen was in accordance with the method reported in Matsuzaki, Yakubutsu Ryoho, Vol.6, No.2, pp.65-72 (1973), formulated as a 10 w/v % aqueous solution which was then intravenously administered to 2 healthy volunteers by instillation. Their blood was sampled at prescribed time intervals and blood sugar and insulin levels were measured, along with the amount of neotrehalose secreted in their urine. As controls, glucose and maltose were used.

The conditions of data set [3]: acidic conditions; cited from earlier work.
The conditions of data set [4]: prior art, Japanese patent publications; cited from earlier work.
The test system of another data set is amylases. The settings on record: Japanese Patent Laid-Open No.240,758/88; cited from earlier work.
Data set [5] in a line: Digestion test in vitro, salivary amylase. Type of data set: in vitro ADME. As to conditions: Table 1, read-out: Hydrolysis rate. As for the experimental part:
as §1

Data set [6] is described as follows: Digestion test in vitro, gastric juice. Type of data set: in vitro ADME. The settings on record: Table 1, read-out: Hydrolysis rate. As for the experimental part: as §1
Another data set relates to dd mice. In words: Acute toxicity test, oral, mice. The class given is in vivo, mouse. As to conditions: 7 week-old dd mice. An excerpt:
A crystalline neotrehalose specimen, prepared by the method in Example A1-2, was orally administered to 7 week-old dd mice as an acute toxicity test. […] Therefore, the toxicity of the tested substance appears to be extremely low.

The nature of data set [7]: Utilization test in vivo, oral administration to healthy volunteers (blood sugar and insulin). Further details: species or system human. An excerpt:
In accordance with the method described in H. Atsuji et al., Journal of Clinical Nutrition, Vol.41, Vol.2, pp.200-208 (1972), 30 g of a neotrehalose specimen was formulated as a 20 w/v % aqueous solution which was then orally administered to 3 healthy volunteers (men) and their blood was sampled at prescribed time intervals and tested for blood sugar and insulin levels. As a control, glucose was used.

Data set [8] is described as follows: Digestion test in vitro, amylopsin. Type of data set: in vitro ADME. The settings on record: Table 1, read-out: Hydrolysis rate. On the procedure:
as §1

The conditions of data set [9]: when the dose and administration method are not correctly chosen; cited from earlier work.
Where [10] appears, read: human, 50 g as 10 w/v % aqueous solution, intravenous instillation, 2 healthy volunteers.
The mark [11] stands for this setting: 50 g as 10 w/v % aqueous solution, intravenous instillation, 2 healthy volunteers.
Setting [12] is: 30 g as 20 w/v % aqueous solution, oral, 3 healthy volunteers, about.

Regarding `OC[C@H]1O[C@@H](O[C@@H]2O[C@H](CO)[C@@H](O)[C@H](O)[C@H]2O)[C@H](O)[C@@H](O)[C@@H]1O` [Isotrehalose (β,β-trehalose), β,β-trehalose], the metabolised in [1] came out at 0.1%.

On to `OC[C@H]1O[C@H](O[C@H]2[C@H](O)[C@@H](O)[C@H](O)O[C@@H]2CO)[C@H](O)[C@@H](O)[C@@H]1O` [Maltose, reference compound], for which the dose excreted in data set [2] (setting [10]) was below 20%.

On to `OC[C@H]1O[C@@](CO)(O[C@H]2O[C@H](CO)[C@@H](O)[C@H](O)[C@H]2O)[C@@H](O)[C@@H]1O` [Sucrose], for which, in [3], the “hydrolysis into glucose and fructose” value is recorded as “readily hydrolyzed”.

In the case of `OC[C@H]1O[C@H](O[C@H]2O[C@H](CO)[C@@H](O)[C@H](O)[C@H]2O)[C@H](O)[C@@H](O)[C@@H]1O` [Trehalose (α,α-trehalose), α,α-trehalose], the metabolised in [1] was 0.4%. Moreover, in data set [4], the “metabolism and utilization in vivo” value is “not readily metabolized and absorbed by the human body”. Further, in the data set with amylases, the “hydrolysis by enzymes such as amylases” value was “not readily hydrolyzed”.

Regarding `OC[C@H]1OC(O)[C@H](O)[C@@H](O)[C@@H]1O` (stereo partly drawn) [glucose, reference compound], in [2] (human, in vivo, iv), the blood sugar level entry is recorded as “greatly increased” and the insulin level entry is listed as “greatly increased”. In addition, the dose excreted in data set [2] (setting [10]) was below 10%.

For the compound `OC[C@@H](O)[C@@H](O[C@@H]1O[C@H](CO)[C@H](O)[C@H](O)[C@H]1O)[C@H](O)[C@@H](O)CO` [lactitol], the “metabolism and utilization in vivo” value in [4] is “not readily metabolized and utilized in vivo”.

`OC[C@@H](O)[C@@H](O[C@H]1O[C@H](CO)[C@@H](O)[C@H](O)[C@H]1O)[C@H](O)[C@@H](O)CO` [maltitol]: in data set [4], the “metabolism and utilization in vivo” value was “not readily metabolized and utilized in vivo”.

In the case of `OC[C@H]1O[C@@H](O[C@H]2O[C@H](CO)[C@@H](O)[C@H](O)[C@H]2O)[C@H](O)[C@@H](O)[C@@H]1O` [neotrehalose, O-α-D-glucopyranosyl β-D-glucopyranoside], the metabolised in data set [1] is 43%; in data set [5], 0%; in data set [6], 0%; in data set [8], 0%. In [2] (setting [11]), the blood sugar level entry was “slightly increased”. The insulin level result in data set [2] (setting [11]) was “did not greatly increase”. The “dynamics of blood sugar and insulin compared with maltose” value in data set [2] (50 g intravenous, controls glucose and maltose) is given as “the same dynamics as maltose”. Moreover, in [2] (setting [10]), the dose excreted is below 20%. Moreover, in the data set on dd mice, the toxicity entry is given as “extremely low”. The “highest administered dose without animal death” value in the data set with dd mice (difficult to administer a higher dose) worked out at 5 g. Besides, the animal death entry with dd mice (up to 5 g) is reported as “no animal death”. For the same compound, the “time of maximum value of blood sugar level after oral administration” value in [7] (setting [12]) is 0.5 to 1 h. Moreover, the “time of maximum value of insulin level after oral administration” value in data set [7] (setting [12]) fell in the range of 0.5 to 1 h. The “behaviour of blood sugar and insulin levels compared with glucose” value in data set [7] (30 g oral, control glucose) is “behaved similarly as glucose”.

In the case of `OC[C@@H](O)[C@@H](O)[C@H](O)[C@@H](O)CO` [sorbitol], the diarrhea result in data set [9] was “acute diarrhea”.

In the case of `OC[C@@H](O)[C@H](O)[C@@H](O)CO` [xylitol], in data set [9], the diarrhea entry is on record as “acute diarrhea”.
